Six substances from US5521284A, “Human cancer inhibitory pentapeptide amides and esters” (priority 1994, dated 1996) can be followed below.

What is called TGI is the concentration at which net growth stops.

For data set [1], the system named is L1210 Lymphocytic Leukemia. Put plainly: Murine in vivo system, L1210 Lymphocytic Leukemia. The note with it: 1.63 μg/kg; time of survival. An excerpt: (§1) Experimental Anticancer Activity of Dolastatin 10 in
(§2) Murine in vivo Systems, T/C (μg/kg)
(§3) T/C - 100 = % life extension.

Data set [2] concerns P388 Lymphocytic Leukemia. Kind of data set: Murine in vivo system, P388 Lymphocytic Leukemia.
Description: (§4) T/C = Test Control, both bearing tumor, expressed in time of survival.
as §3

A further data set concerns Human Mammary Xenograph. Put plainly: Human Mammary Xenograph Nude Mouse. The note with it: 26 μg/kg.
Description: as §4, §3

Data set [3] deals with OVCAR-3 Human Ovary Xenograph. Put plainly: OVCAR-3 Human Ovary Xenograph Nude Mouse. It is filed as in vivo. Particulars: 40 μg/kg; time of survival.
Description: as §1, §2, §3

Data set [4] has as its system MX-1 Human Mammary Xenograft. Kind of data set: MX-1 Human Mammary Xenograft (Tumor Regression). It is filed as in vivo, Murine.
Description: as §1, §2, §3
For orientation: Xenograft models place foreign cells or tissue in a host animal.

In a further data set the test system is B16 Melanoma. Kind of data set: Murine in vivo system, B16 Melanoma. The note with it: 11.11 μg/kg.
Description: as §1, §2, §3

Data set [5] relates to LOX Human Melanoma Xenograph. Kind of data set: LOX Human Melanoma Xenograph (Nude Mouse).
Description: as §4, §3

The subject of another data set is SK-MEL-5. Put plainly: NCI in vitro mini panel, Melanoma SK-MEL-5. It is filed as cell-based, Human. The note with it: 48 hrs. On the procedure: (§5) ED50 (P388) and GI50 (HTCL) identify the drug dose which reduces the percent tumor/cell growth to 50%. There is no mathematical difference between ED50 and GI50, both of which are calculated using the same formula. The only difference is historical usage.
(§6) TGI, means "Total Growth Inhibition", and identifies the drug dose needed to yield zero percent growth, i.e. there are just as many cells at the end of the experiment as were present at the beginning. Whether just as many cells were killed as were produced (steady state), or no growth occurred (total inhibition) cannot be distinguished.
(§7) LC50, means "Lethal Concentration 50%", and identifies the drug concentration which reduces to one-half of the cells originally present at the beginning of the experiment.
(§8) Each drug is tested at five (5) doses: 100-10-1-0.1-0.01--μg/mL. Percent Growths are calculated for each dose. The two (or three) doses with growth values above, below, (or near to) 50% growth are used to calculate the ED50 /GI50 values using a linear regression computation. If no dose yields a growth value under 50%, the results are expressed as: ED50 >(highest dose). If no dose yields growth higher than 50% growth, then ED50 <(lowest dose). Similar calculations are performed for the TGI at 0% growth, and at -50% growth for the LC50.
(§9) At the start of each experiment, cells from the in vitro cell cultures are inoculated into the appropriate tubes or microtiter plates. One set of control tubes/plates is immediately counted to determine the number of cells at the start of the experiment. This is the "baseline count", or "Tzero reading". At the end of the experiment (48 hrs later), a second set of control tubes/plates is analyzed to determine the "Control Growth" value. The growth (or death) of cells relative to the initial quantity of cells is used to define the "Percent of Growth."
(§10) For each of six cell lines, GI50, TGI, and LC50 amounts were also calculated for each of the compounds. Each compound was also tested against the PS-388 cell line and for this test an ED50 was calculated.
(§11) The protocols followed, for the NCI minipanel are, except for the number of cell lines, those established by M. R. Boyd Ph.D., and well known to those of ordinary skill in the art. The procedure followed for the test against PS-388 Leukemia is the same that was followed in the superseded NCI P-388 screening test, which is also well known to those having ordinary skill in the art.

Another data set relates to PS-388. Kind of data set: PS-388 Mouse Leukemia cell line test. It is filed as cell-based. The note with it: Mouse Leukemia PS-388. On the procedure:
as §5, §8, §9, §10, §11

A further data set relates to OVCAR-3. Put plainly: NCI in vitro mini panel, Ovarian OVCAR-3. It is filed as cell-based, Human. Particulars: 48 hrs. The method, then:
as §5, §6, §7, §8, §9, §10, §11

Another data set relates to NCI-H460. Kind of data set: NCI in vitro mini panel, Lung-NSC NCI-H460. It is filed as cell-based, Human. Particulars: 48 hrs. On the procedure: as §5, §6, §7, §8, §9, §10, §11
Another data set concerns SF-295. Put plainly: NCI in vitro mini panel, CNS SF-295. Particulars: 48 hrs. It is filed as cell-based, Human. The method, then: as §5, §6, §7, §8, §9, §10, §11
The next data set relates to A498. Put plainly: NCI in vitro mini panel, Renal A498. It is filed as cell-based, Human. Particulars: 48 hrs. On the procedure:
as §5, §6, §7, §8, §9, §10, §11

The test system of another data set is KM20L2. Put plainly: NCI in vitro mini panel, Colon KM20L2. It is filed as cell-based, Human. Particulars: 48 hrs. On the procedure: as §5, §6, §7, §8, §9, §10, §11

Regarding Dolastatin 10, the T/C in [1] is 120; in data set [2] (13.0 μg/kg) it was “toxic”; with Human Mammary Xenograph, “Toxic”; in [3], 300; in [5] (3.25 μg/kg, time of survival), 170; in [5] (52 μg/kg), “toxic”. This substance yielded a T/C in data set [5] (Lox in separate experiments, 43 μg/kg, time of survival) of 340. Besides, the cures was determined as 17% in data set [2] (3.25 μg/kg); 17% in data set [2] (6.5 μg/kg); 40% in the data set on B16 Melanoma; 17% in [5] (3.25 μg/kg); 33% in [5] (6.5 μg/kg); 50% in [5] (13 μg/kg). Further, the cures in data set [5] (26 μg/kg) worked out at 67%. For the same substance, the “T/C (Tumor Regression)” value in data set [4] (6.25 μg/kg) is recorded as 69; in data set [4] (13 μg/kg), 61; in data set [4] (26 μg/kg), 50; in [4] (52 μg/kg), 14.
For Dov-ile-Dil-Dap-Met-OMe [Compound 14], the GI-50 in the data set on SK-MEL-5 is 0.000044 µg/mL; with OVCAR-3, 0.000067 µg/mL; in the data set with NCI-H460, 0.00012 µg/mL; with SF-295 it was 0.00025 µg/mL; with A498, 0.00027 µg/mL; in the data set on KM20L2 it was 0.000034 µg/mL. Also, the LC-50 in the data set with SK-MEL-5, in the data set with OVCAR-3, with NCI-H460, in the data set with SF-295, with A498 and with KM20L2 was > 1 µg/mL throughout. For the same substance, the TGI in the data set with SK-MEL-5 was 22 ng/mL; with OVCAR-3, 0.67 ng/mL; in the data set on NCI-H460 it was 0.13 ng/mL; with SF-295, > 1000 ng/mL; with A498, 35 ng/mL; with KM20L2, 1.3 ng/mL. This substance also displayed an ED-50 with PS-388 of 0.00032 µg/mL.
Take Dov-Ie-Dil-Dap-Doe [Compound 12]: the GI-50 with SK-MEL-5 came out at 0.0000000048 µg/mL; with OVCAR-3 it was 0.0000000091 µg/mL; in the data set with NCI-H460, 0.0000000058 µg/mL; in the data set on SF-295, 0.000000025 µg/mL; with A498, 0.000000058 µg/mL; in the data set on KM20L2 it was 0.0000000072 µg/mL. Also, the LC-50 with SK-MEL-5, in the data set with OVCAR-3, in the data set with NCI-H460, in the data set with SF-295, in the data set with A498 and in the data set with KM20L2 was > 1 µg/mL throughout. The concentration for total growth inhibition (TGI) in the data set on SK-MEL-5 was 0.00015 ng/mL; in the data set on OVCAR-3 it was 6e-05 ng/mL; in the data set with NCI-H460 it was 6.5e-05 ng/mL; with SF-295 it was 0.00025 ng/mL; in the data set with A498, 17 ng/mL; with KM20L2 it was 0.0001 ng/mL. In the data set with PS-388, this substance displayed an ED-50 of 0.0000248 µg/mL.
In the case of “Dov-Val-Dil-Dap Pentyl ester [Compound 16a]”, the GI-50 was 0.00066 µg/mL with SK-MEL-5, 0.00052 µg/mL in the data set on OVCAR-3, 0.00034 µg/mL in the data set on NCI-H460 and < 0.0001 µg/mL with A498. For the same substance, the LC-50 in the data set with SK-MEL-5, in the data set with OVCAR-3, in the data set on NCI-H460, with SF-295, with A498 and with KM20L2 was > 1 µg/mL throughout. In addition, the TGI came out at 31 ng/mL in the data set with SK-MEL-5; 1.1 ng/mL with OVCAR-3; 1.1 ng/mL in the data set with NCI-H460; 21 ng/mL with SF-295; 180 ng/mL in the data set on A498; 13 ng/mL in the data set with KM20L2. In the data set with PS-388, this substance registered an ED-50 of 0.021 µg/mL.
As to “Dov-Val-Dil-Dap Octyl ester [Compound 16b]”, the GI-50 was 0.0027 µg/mL in the data set on SK-MEL-5; 0.0031 µg/mL in the data set on OVCAR-3; 0.0042 µg/mL in the data set on NCI-H460; 0.0054 µg/mL with SF-295; 0.025 µg/mL in the data set with A498; 0.0017 µg/mL in the data set on KM20L2. Further, the LC-50 in the data set with SK-MEL-5, in the data set on OVCAR-3, in the data set on NCI-H460, in the data set on SF-295, with A498 and in the data set with KM20L2 was > 1 µg/mL in each case. For the same substance, the TGI in the data set with SK-MEL-5 was > 1000 ng/mL; in the data set on OVCAR-3 it was 40 ng/mL; with NCI-H460, 58 ng/mL; in the data set with SF-295, > 1000 ng/mL; in the data set with A498 it was 550 ng/mL; in the data set on KM20L2 it was 130 ng/mL. Besides, the ED-50 in the data set with PS-388 stood at 0.029 µg/mL.
Turning to “Dov-Val-Dil-Dap hexylamide [Compound 16c]”, the GI-50 in the data set on SK-MEL-5 was 0.00058 µg/mL; with OVCAR-3, 0.0005 µg/mL; in the data set on NCI-H460, 0.00071 µg/mL; in the data set with SF-295, 0.0011 µg/mL; in the data set with A498 it was 0.0019 µg/mL; in the data set on KM20L2, 0.00092 µg/mL. In addition, the LC-50 with SK-MEL-5, in the data set with OVCAR-3, in the data set on NCI-H460, in the data set with SF-295, in the data set with A498 and with KM20L2 was > 0.01 µg/mL throughout. For the same substance, the total growth inhibition concentration (TGI) is > 10 ng/mL in the data set with SK-MEL-5; 3.9 ng/mL with OVCAR-3; 5.1 ng/mL with NCI-H460; > 10 ng/mL with SF-295; > 10 ng/mL with A498; 6.6 ng/mL in the data set on KM20L2. Further, the ED-50 with PS-388 worked out at 0.00227 µg/mL.
